{
  "source": "patent US20040176361A1",
  "about": "“Fused heterocyclic compound and medicinal use thereof” (priority 2001, published 2004)",
  "data": [
    {"values": [
      {"smiles": "Cc1ccc2cc(C3CCN(C)CC3)[nH]c(=O)c2c1", "melting point": "239 to 241 °C"},
      {"smiles": "CN(C)C1CCN(c2cc3ccccc3c(=O)[nH]2)C1", "note": "(stereo not drawn) [Example 2, 3-(3-dimethylaminopyrrolidine-1-yl)-2H-isoquinolin-1-one]", "melting point": "233 to 234 °C (dec.)"},
      {"smiles": "Cc1cccc2cc(N3CCN(C)CC3)[nH]c(=O)c12", "melting point": "224 to 225 °C (dec.)"},
      {"smiles": "CN(C)CC1CCCN(c2cc3ccccc3c(=O)[nH]2)C1", "note": "(stereo not drawn) [Example 206, 3-(3-(dimethylaminomethyl)piperidin-1-yl)-2H-isoquinolin-1-one]", "melting point": "141 to 143 °C"},
      {"smiles": "CN1CCN(CCCc2cc3ccccc3c(=O)[nH]2)CC1", "note": "[Example 148, 3-(3-(4-methylpiperazin-1-yl)propyl)-2H-isoquinolin-1-one]", "melting point": "120 to 122 °C"},
      {"smiles": "Cc1cccc2cc(C3CCN(C)CC3)[nH]c(=O)c12", "melting point": "200 to 202 °C"},
      {"smiles": "CN1CCC(C2Cc3ccccc3C(=O)N2)CC1", "note": "(stereo not drawn) [Example 158, 3-(1-methylpiperidin-4-yl)-3,4-dihydro-2H-isoquinolin-1-one]", "melting point": "139 to 141 °C"},
      {"smiles": "COCOc1cccc2c(=O)[nH]c(CCCCN(C)C)cc12", "note": "[Example 187, 5-methoxymethyloxy-3-(4-dimethylaminobutyl)-2H-isoquinolin-1-one]", "melting point": "109 to 111 °C"},
      {"smiles": "CN1CCC(c2cc3c(N(C)C)cccc3c(=O)[nH]2)CC1", "note": "[Example 180, 5-(dimethylamino)-3-(1-methylpiperidin-4-yl)-2H-isoquinolin-1-one]", "melting point": "216 to 218 °C"},
      {"smiles": "CN1CCCC(c2cc3ccccc3c(=O)[nH]2)C1", "note": "(stereo not drawn)", "melting point": "155 to 156 °C"},
      {"smiles": "O=c1[nH]c(N2CCCC(CO)C2)cc2ccccc12", "note": "(stereo not drawn) [Example 201, 3-(3-hydroxymethylpiperidin-1-yl)-2H-isoquinolin-1-one]", "melting point": "143 to 144 °C"},
      {"smiles": "COCOc1cccc2c(=O)[nH]c(C3CCN(C)CC3)cc12", "note": "[Example 171, 5-methoxymethyloxy-3-(1-methylpiperidin-4-yl)-2H-isoquinolin-1-one]", "melting point": "194 to 196 °C"},
      {"smiles": "CN1CCC=C(c2cc3ccccc3c(=O)[nH]2)C1", "note": "[Example 193, 3-(1-methyl-1,2,3,6-tetrahydropyridin-5-yl)-2H-isoquinolin-1-one]", "melting point": "214 to 216 °C"},
      {"smiles": "COCOc1cccc2c(=O)[nH]c(CCCN(C)C)cc12", "note": "[Example 185, 5-methoxymethyloxy-3-(3-dimethylaminopropyl)-2H-isoquinolin-1-one]", "melting point": "110 to 112 °C"},
      {"smiles": "CCCN1CCN(c2cc3ccccc3c(=O)[nH]2)CC1CO", "note": "(stereo not drawn) [Example 196, 3-(3-hydroxymethyl-4-propylpiperazin-1-yl)-2H-isoquinolin-1-one]", "melting point": "152 to 154 °C"},
      {"smiles": "Cc1ccc2c(=O)[nH]c(C3CCN(C)CC3)cc2c1", "melting point": "236 to 238 °C"},
      {"smiles": "Cc1ccc2c(=O)[nH]c(N3CCN(CCO)CC3)cc2c1", "note": "[Example 35, 3-(4-(2-hydroxyethyl)piperazin-1-yl)-6-methyl-2H-isoquinolin-1-one]", "melting point": "236 to 237 °C (dec.)"},
      {"smiles": "CCOC(=O)C1CN(c2cc3ccccc3c(=O)[nH]2)CCN1C", "note": "(stereo not drawn) [Example 154, 3-(3-ethoxycarbonyl-4-methylpiperazin-1-yl)-2H-isoquinolin-1-one]", "melting point": "105 to 109 °C"},
      {"smiles": "O=c1[nH]c(N2CCN(Cc3ccccc3)C(CO)C2)cc2ccccc12", "note": "(stereo not drawn) [Example 197, 3-(4-benzyl-3-hydroxymethylpiperazin-1-yl)-2H-isoquinolin-1-one]", "melting point": "176 to 177 °C"},
      {"smiles": "CC(C)CN1CCN(c2cc3ccccc3c(=O)[nH]2)CC1CO", "note": "(stereo not drawn) [Example 203, 3-(3-hydroxymethyl-4-isobutylpiperazin-1-yl)-2H-isoquinolin-1-one]", "melting point": "130 to 132 °C"},
      {"smiles": "O=c1[nH]c(N2CCN(CCO)CC2)cc2c(F)cccc12", "note": "[Example 33, 5-fluoro-3-(4-(2-hydroxyethyl)piperazin-1-yl)-2H-isoquinolin-1-one]", "melting point": "207 to 208 °C (dec.)"},
      {"smiles": "O=c1[nH]c(N2CCN(CCCCN3CCCCC3)CC2)cc2c(Br)cccc12", "note": "[Example 78, 5-bromo-3-{4-[4-(piperidin-1-yl)butyl]piperazin-1-yl}-2H-isoquinolin-1-one]", "melting point": "165 to 166 °C (dec.)"},
      {"smiles": "CS(=O)(=O)N1CCN(c2cc3ccccc3c(=O)[nH]2)CC1", "note": "[Example 8, 3-(4-methanesulfonylpiperazin-1-yl)-2H-isoquinolin-1-one]", "melting point": "257 to 259 °C (dec.)"},
      {"smiles": "CN1CCCN(c2cc3ccccc3c(=O)[nH]2)CC1", "note": "[Example 10, 3-(4-methylhomopiperazin-1-yl)-2H-isoquinolin-1-one]", "melting point": "171 to 172 °C (dec.)"},
      {"smiles": "CCOC(=O)N1CCN(c2cc3ccccc3c(=O)[nH]2)CC1", "note": "[Example 9, 3-(4-ethoxycarbonylpiperazin-1-yl)-2H-isoquinolin-1-one]", "melting point": "191 to 192 °C (dec.)"},
      {"smiles": "Cc1cccc2cc(N3CCN(CCO)CC3)[nH]c(=O)c12", "note": "[Example 41, 3-[4-(2-hydroxyethyl)piperazin-1-yl]-8-methyl-2H-isoquinolin-1-one]", "melting point": "209 to 210 °C (dec.)"},
      {"smiles": "O=c1[nH]c(N2CCNC(CO)C2)cc2c(Br)cccc12", "note": "(stereo not drawn) [Example 198, 5-bromo-3-(3-hydroxymethylpiperazin-1-yl)-2H-isoquinolin-1-one]", "melting point": "> 230 °C (dec.)"},
      {"smiles": "COc1ccc(-c2c(C3CCN(C)CC3)[nH]c(=O)c3ccccc23)cc1", "note": "[Example 99, 4-(4-methoxyphenyl)-3-(1-methylpiperidin-4-yl)-2H-isoquinolin-1-one]", "melting point": "209 to 211 °C"},
      {"smiles": "Cc1ccc2c(=O)[nH]c(N3CCN(C)CC3)cc2c1", "melting point": "242 to 243 °C (dec.)"},
      {"smiles": "COCOc1ccc2cc(C3CCN(C)CC3)[nH]c(=O)c2c1", "note": "[Example 210, 7-methoxymethyloxy-3-(1-methylpiperidin-4-yl)-2H-isoquinolin-1-one]", "melting point": "200 to 202 °C"},
      {"smiles": "CC1CN(c2cc3ccccc3c(=O)[nH]2)CC(C)N1", "note": "(stereo not drawn)", "melting point": "208 to 210 °C"},
      {"smiles": "CN(C)C1CCC(c2cc3ccccc3c(=O)[nH]2)CC1", "note": "(stereo not drawn) [Example 147, 3-(4-(dimethylamino)cyclohexan-1-yl)-2H-isoquinolin-1-one]", "melting point": "256 to 258 °C"},
      {"smiles": "Cc1c(C2CCN(C)CC2)[nH]c(=O)c2ccccc12", "melting point": "202 to 204 °C"},
      {"smiles": "CN(C)C(=O)C1CCCN(c2cc3ccccc3c(=O)[nH]2)C1", "note": "(stereo not drawn) [Example 202, 3-(3-(dimethylcarbamoyl)piperidin-1-yl)-2H-isoquinolin-1-one]", "melting point": "187 to 188 °C"},
      {"smiles": "CN1CCC(c2[nH]c(=O)c3ccccc3c2-c2ccccc2F)CC1", "note": "[Example 182, 4-(2-fluorophenyl)-3-(1-methylpiperidin-4-yl)-2H-isoquinolin-1-one]", "melting point": "247 to 249 °C"},
      {"smiles": "CN(C)C1CCN(c2cc3ccc(Br)cc3c(=O)[nH]2)CC1", "note": "[Example 31, 7-bromo-3-(4-dimethylaminopiperidin-1-yl)-2H-isoquinolin-1-one]", "melting point": "227 to 228 °C (dec.)"},
      {"smiles": "CN1CCC(c2cc3ncccc3c(=O)[nH]2)CC1", "melting point": "> 240 °C (dec.)"},
      {"smiles": "CN1CCC(c2[nH]c(=O)c3ccccc3c2-c2ccc(Cl)cc2)CC1", "note": "[Example 100, 4-(4-chlorophenyl)-3-(1-methylpiperidin-4-yl)-2H-isoquinolin-1-one]", "melting point": "254 to 256 °C"},
      {"smiles": "CN1CCN(C(=O)c2cc3ccccc3c(=O)[nH]2)CC1", "note": "[Example 83, 3-((4-methylpiperazin-1-yl)carbonyl)-2H-isoquinolin-1-one]", "melting point": "170 to 172 °C"},
      {"smiles": "Br.O=c1[nH]c(C2CCNCC2)c(-c2ccccc2)c2ccccc12", "melting point": "> 270 °C"},
      {"smiles": "CN1CCN(N2CC(=O)c3c(ccc4ccccc34)C2)CC1", "note": "[Example 114, 3-(4-methylpiperazin-1-yl)-2H-benz[f]isoquinolin-1-one]", "melting point": "253 to 254 °C (dec.)"},
      {"smiles": "Cc1ccc(-c2c(C3CCN(C)CC3)[nH]c(=O)c3ccccc23)cc1", "note": "[Example 163, 4-(4-methylphenyl)-3-(1-methylpiperidin-4-yl)-2H-isoquinolin-1-one]", "melting point": "244 to 246 °C"},
      {"smiles": "Br.O=c1[nH]c(C2CCNCC2)cc2ccccc12", "melting point": "> 270 °C"},
      {"smiles": "Cc1cccc2c(=O)[nH]c(CC3CN4CCC3CC4)nc12", "note": "(stereo not drawn)", "melting point": "187 to 188 °C (dec.)"},
      {"smiles": "O=c1[nH]c(N2CCN(CCCCN3CCCCC3)CC2)cc2ccc(Br)cc12", "note": "[Example 76, 7-bromo-3-{4-[4-(piperidin-1-yl)butyl]piperazin-1-yl}-2H-isoquinolin-1-one]", "melting point": "211 to 212 °C (dec.)"},
      {"smiles": "CN1CCC(c2cc3ccc(O)cc3c(=O)[nH]2)CC1.Cl", "melting point": "284 to 286 °C"},
      {"smiles": "CN1CCN(c2cc3c(Br)cccc3c(=O)[nH]2)CC1CO", "note": "(stereo not drawn) [Example 199, 5-bromo-3-(3-hydroxymethyl-4-methylpiperazin-1-yl)-2H-isoquinolin-1-one]", "melting point": "200 to 202 °C"},
      {"smiles": "Cc1ccccc1-c1c(C2CCN(C)CC2)[nH]c(=O)c2ccccc12", "note": "[Example 169, 4-(2-methylphenyl)-3-(1-methylpiperidin-4-yl)-2H-isoquinolin-1-one]", "melting point": "249 to 251 °C"},
      {"smiles": "CCCN1CCN(c2cc3ccccc3c(=O)[nH]2)CC1", "note": "[Example 7, 3-(4-propylpiperazine-1-yl)-2H-isoquinolin-1-one]", "melting point": "208 to 209 °C (dec.)"},
      {"smiles": "CN1CCC(c2[nH]c(=O)c3ccccc3c2-c2ccc(F)cc2)CC1", "note": "[Example 164, 4-(4-fluorophenyl)-3-(1-methylpiperidin-4-yl)-2H-isoquinolin-1-one]", "melting point": "269 to 271 °C"},
      {"smiles": "Cc1cccc2c(=O)[nH]c(N3CCN(CCCCN4CCN(C)CC4)CC3)cc12", "note": "[Example 75, 5-methyl-3-(4-(4-(4-methylpiperazin-1-yl)butyl)piperazin-1-yl)-2H-isoquinolin-1-one]", "melting point": "202 to 203 °C (dec.)"},
      {"smiles": "Cc1cccc(-c2c(C3CCN(C)CC3)[nH]c(=O)c3ccccc23)c1", "note": "[Example 168, 4-(3-methylphenyl)-3-(1-methylpiperidin-4-yl)-2H-isoquinolin-1-one]", "melting point": "214 to 216 °C"},
      {"smiles": "Cc1cccc2c(=O)[nH]c(C3CCC(N(C)C)CC3)nc12", "note": "(stereo not drawn) [Example 137, 8-methyl-2-(4-dimethylaminocyclohexan-1-yl)-3H-quinazolin-4-one]", "melting point": "181 to 183 °C (dec.)"},
      {"smiles": "CN1CCN(c2cc3ccccc3c(=O)[nH]2)[C@@H](CO)C1", "note": "[Example 151, (R)-3-(2-hydroxymethyl-4-methylpiperazin-1-yl)-2H-isoquinolin-1-one]", "melting point": "172 to 174 °C"}
    ]}
  ]
}
